From patent US20160367497A1, “METHODS AND COMPOSITIONS FOR TREATING NEUROPATHIES” (Washington University, priority 2007, published 2016)

How the values were obtained:
[1] = test system: DRG neuronal explant cultures; assay: in vitro Wallerian degeneration assay, DRG explant neurite transection; assay type: cell-based, mouse; settings: lentivirus-mediated expression in DRG neurons
Method: To identify the mechanism of delayed axonal degeneration mediated by the Wlds protein, we employed an in-vitro Wallerian degeneration model. Primary DRG explant neurons were infected with lentivirus expressing the appropriate proteins, and axons were injured by either removal of the neuronal cell body (transection) or growth in vincristine (toxic).
Mouse DRG explants from E12.5 embryos were cultured in the presence of 1 nM nerve growth factor. Non-neuronal cells were removed from the cultures by adding 5-fluorouracil to the culture medium. Transection of neurites was performed at 10-20 DIV using an 18-gauge needle to remove the neuronal cell bodies. Incubation with β-nicotinamide adenine dinucleotide (Sigma) or Sirtinol (Calbiochem) was performed using conditions indicated in the text or figures.
Quantitative analysis of axonal degeneration was performed as previously described (Zhai, et al., Neuron 39:217-25, 2003). Briefly, the cultures were examined using phase contrast microscopy at the indicated times. Axons with a fragmented, non-refractile appearance were designated as “degenerated.” At each time point, at least 200 singly distinguishable axons were blindly scored from several randomly taken images of each culture. Each condition was tested in triplicate explants in each experiment. Results were obtained from 2-4 independent experiments for each condition. Statistical analysis was performed by Student's T test. For calculations of neurite-covered area, digitally captured images from quadruplicate samples of two independent experiments were analyzed using analysis 3.1 software (Soft Imaging System, Lakewood, Colo.).
Cell culture, in vitro axotomy, and quantification of axonal degeneration. Mouse DRG explants from E12.5 embryos were cultured in the DMEM containing 10% FCS and 1 nM nerve growth factor. Non-neuronal cells were removed from the cultures by adding 5-fluorouracil to the culture media. Transection of neurites was performed at 14-21 DIV using an 18-gauge needle to remove the neuronal cell bodies. Lentiviral expression vectors were generated. Lentiviral infection was performed 3-7 days prior to axonal transection for 24 hr. Quantitative analysis of neurite degeneration was performed.

[2] = NMNAT enzymatic assay (NAD production); assay type: biochemical; settings: protein from HEK293/HEK293T cells; NAD generated in 1 h
Method: […]
NMNAT protein overexpression, affinity purification and enzymatic assay. […] Relative NMNAT enzymatic activity was measured by using affinity purified proteins as described before and subtracted the value obtained from mock transfected cells and normalized by the amount of recombinant protein determined by densitometry.

For “NMNAT3: murine nicotinamide mononucleotide adenylyltransferase3”, the “axonal/neurite degeneration after transection” value [1] was “same extent of delay in neurite degeneration as well as NMNAT1” and the “NMNAT enzymatic activity (NAD synthesis)” value [2] was “comparable enzymatic activity compared with NMNAT1”.
